Values belong to the compound of their own block, whether it stands above or below them.
Assays:
murine hepatoma H22 [1] = test: Curative effect test against murine hepatoma H22 (inoculated under the armpit) by gavaging a triacontanol oil agent; type: in vivo, mice
Procedure: (§1) Experiment method: […] of the tumor models of murine hepatoma H22, intestinal cancer C26 and Lewis lung cancer by hypodermic inoculating in the murine in vivo
(§2) A cancer cell suspension is prepared from the tumor source by homogenate technique, and then is inoculated subcutaneously under the armpit. After 24 hours, medication is administrated according to a predesigned scheme, and finally, an inhibition rate statistic against the tumor is obtained by comparing with a negative control group.

murine hepatoma H22 [2] = test: Curative effect test against murine hepatoma H22 by gavaging a thixotropic oil suspension of triacontanol; type: in vivo, mice
Procedure: as §1, §2

[3] = Effect to the thymus index and spleen index of murine by gavaging a triacontanol oil agent; type: in vivo; conditions: tumor-bearing mice
Lewis lung cancer = test: Curative effect test against murine Lewis lung cancer (hypodermically inoculated) by intravenous administration of a triacontanol emulsion; type: in vivo, mice; conditions: 7 mg/kg/d
Procedure: as §1, §2

intestinal cancer C26 = test: Curative effect test against murine intestinal cancer C26 (hypodermically inoculated) by gavaging a 352B oil agent; type: in vivo, mice; conditions: 7 mg/kg/d
Procedure: as §1, §2

[4] = 100 mg/kg (middle dosage), gavage
[5] = 150 mg/kg (high dosage), gavage
[6] = ipx2, vs negative control group

Weight (g) After administration (murine hepatoma H22 [1]; 50 mg/kg (low dosage), gavage): 23.51 ± 1.99 g | Weight (g) After administration (murine hepatoma H22 [1]; [4]): 23.20 ± 2.86 g | Weight (g) After administration (murine hepatoma H22 [1]; [5]): 23.52 ± 2.36 g | Spleen index (mg/10 g body weight) ([3]; 50 mg/kg (low dosage), gavage): 67.1 ± 13.7 mg/10 g body weight | Thymus index (mg/10 g body weight) ([3]; 50 mg/kg (low dosage), gavage): 45 ± 6.72 mg/10 g body weight | Weight of spleen ([3]; 50 mg/kg (low dosage), gavage): 153.52 ± 35.62 mg | Weight of thymus ([3]; 50 mg/kg (low dosage), gavage): 102.14 ± 15.90 mg | Spleen index (mg/10 g body weight) [3, 4]: 62.1 ± 17.5 mg/10 g body weight | Thymus index (mg/10 g body weight) [3, 4]: 38.7 ± 8.08 mg/10 g body weight | Weight of spleen [3, 4]: 139.98 ± 41.62 mg | Weight of thymus [3, 4]: 86.87 ± 16.44 mg | Spleen index (mg/10 g body weight) [3, 5]: 65.7 ± 12.3 mg/10 g body weight | Thymus index (mg/10 g body weight) [3, 5]: 37.7 ± 6.73 mg/10 g body weight | Weight of spleen [3, 5]: 151.26 ± 32.16 mg | Weight of thymus [3, 5]: 86.86 ± 16.14 mg
SMILES: CCCCCCCCCCCCCCCCCCCCCCCCCCCCCCO [352B, triacontanol]
Weight of the tumor (murine hepatoma H22 [1]; 50 mg/kg (low dosage), gavage): 0.72 ± 0.38 g | Inhibition rate (%) (murine hepatoma H22 [1]; 50 mg/kg (low dosage), gavage, compared with the menstruum control group): 48.13% | Weight of the tumor (murine hepatoma H22 [1]; [4]): 0.57 ± 0.28 g | Inhibition rate (%) (murine hepatoma H22 [1]; 100 mg/kg (middle dosage), gavage, compared with the menstruum control group): 58.95% | Weight of the tumor (murine hepatoma H22 [1]; [5]): 0.49 ± 0.25 g | Inhibition rate (%) (murine hepatoma H22 [1]; 150 mg/kg (high dosage), gavage, compared with the menstruum control group): 64.59% | antitumor effect (summary in words) (murine hepatoma H22 [2]; summary of the above tests (H22, Lewis lung cancer, C26)): prominent antitumor effect | effect to the important immune organ (thymus and spleen) ([3]; summary in words): hasn't obvious effect to the important immune organ

SMILES: N.N.[Cl][Pt][Cl] [DDP]
Weight of the animal (g) at last (Lewis lung cancer; ipx2): 19.2/20.9 g | Weight of the tumor (g) X ± SD (Lewis lung cancer; ipx2): 0.278 ± 0.14 g | Inhibition rate (%) (Lewis lung cancer; [6]): 89.00% | Weight of the tumor (murine hepatoma H22 [1]; 0.001 mg/kg): 0.31 ± 0.19 g | Inhibition rate (%) (murine hepatoma H22 [1]; 0.001 mg/kg, compared with the NS control group): 79.76% | Weight of the animal (g) at last (murine hepatoma H22 [2]; 7 mg/kg/d, igx2): 21.4/25.4 g | Weight of the tumor (g) X ± SD (murine hepatoma H22 [2]; 7 mg/kg/d, igx2): 1.269 ± 0.13 g | Inhibition rate (%) (murine hepatoma H22 [2]; 7 mg/kg/d, igx2, vs negative control group): 91.0% | Spleen index (mg/10 g body weight) ([3]; 0.001 mg/kg): 46 ± 8.18 mg/10 g body weight | Thymus index (mg/10 g body weight) ([3]; 0.001 mg/kg): 30.7 ± 8.06 mg/10 g body weight | Weight of spleen ([3]; 0.001 mg/kg): 88.90 ± 27.79 mg | Weight of thymus ([3]; 0.001 mg/kg): 59.61 ± 22.45 mg | Weight of the animal (g) at last (intestinal cancer C26; ipx2): 19.1/24.1 g | Weight of the tumor (g) X ± SD (intestinal cancer C26; ipx2): 0.346 ± 0.13 g | Inhibition rate (%) (intestinal cancer C26; [6]): 86.99%

From patent US7863337B2, “Use of triacontanol in preparation of medicaments for treatment of cancers” (priority 2006, dated 2011)
